Each structure is given as a SMILES string. Values joined by “and” are separate entries in the source; they are usually repeats but may differ in a detail not shown here. Identical values can stand only once.

This passage reports Activity results from ChEMBL document CHEMBL5442741, “ASAP - In vitro kinase profile” (2024).

Experiment [1] deals with T1, Mitogen-activated protein kinase kinase kinase 5 (Homo sapiens) (UniProt Q99683).
T1 sequence (whole entry): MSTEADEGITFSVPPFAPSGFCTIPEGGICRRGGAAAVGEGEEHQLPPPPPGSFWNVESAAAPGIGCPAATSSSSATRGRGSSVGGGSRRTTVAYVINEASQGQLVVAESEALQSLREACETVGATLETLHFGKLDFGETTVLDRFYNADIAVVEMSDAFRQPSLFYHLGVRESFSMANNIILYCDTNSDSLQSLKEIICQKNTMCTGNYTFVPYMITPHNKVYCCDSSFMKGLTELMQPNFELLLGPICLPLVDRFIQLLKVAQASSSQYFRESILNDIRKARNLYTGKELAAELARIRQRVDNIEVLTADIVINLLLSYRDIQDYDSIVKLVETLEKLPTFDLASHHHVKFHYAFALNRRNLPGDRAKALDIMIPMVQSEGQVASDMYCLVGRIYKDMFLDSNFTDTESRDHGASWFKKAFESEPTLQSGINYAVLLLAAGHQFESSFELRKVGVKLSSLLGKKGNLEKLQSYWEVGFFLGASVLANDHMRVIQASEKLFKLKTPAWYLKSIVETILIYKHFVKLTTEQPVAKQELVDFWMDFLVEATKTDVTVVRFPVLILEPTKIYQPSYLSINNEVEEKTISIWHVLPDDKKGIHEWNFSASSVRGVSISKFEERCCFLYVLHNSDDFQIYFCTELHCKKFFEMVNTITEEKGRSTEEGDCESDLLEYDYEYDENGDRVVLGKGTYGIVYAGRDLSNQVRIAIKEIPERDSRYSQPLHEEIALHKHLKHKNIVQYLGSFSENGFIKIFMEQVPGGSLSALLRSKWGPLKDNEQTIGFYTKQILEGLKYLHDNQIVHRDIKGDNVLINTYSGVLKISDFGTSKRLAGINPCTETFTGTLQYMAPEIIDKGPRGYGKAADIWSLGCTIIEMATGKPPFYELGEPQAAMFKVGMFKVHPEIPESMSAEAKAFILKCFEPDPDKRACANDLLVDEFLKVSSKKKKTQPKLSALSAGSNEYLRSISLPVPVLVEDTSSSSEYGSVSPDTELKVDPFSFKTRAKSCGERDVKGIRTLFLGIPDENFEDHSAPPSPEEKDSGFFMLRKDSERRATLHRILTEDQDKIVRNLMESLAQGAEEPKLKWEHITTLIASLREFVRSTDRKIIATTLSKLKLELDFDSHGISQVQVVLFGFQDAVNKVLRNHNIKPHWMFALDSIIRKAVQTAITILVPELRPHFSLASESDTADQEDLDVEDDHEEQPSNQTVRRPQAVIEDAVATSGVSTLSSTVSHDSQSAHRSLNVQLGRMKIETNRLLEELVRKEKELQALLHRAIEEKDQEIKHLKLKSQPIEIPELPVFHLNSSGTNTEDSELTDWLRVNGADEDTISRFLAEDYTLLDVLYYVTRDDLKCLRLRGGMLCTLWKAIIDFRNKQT
Description: Enzymatic radiometric [Km ATP] KinaseProfiler LeadHunter assay, kinase: ASK1, catalogue number: 14-606KP The assay has been performed by Eurofins Discovery. The note with it: ATP concentration 200.0 uM, Test compound concentration 10.0 uM.

For experiment [2], the target named is Serine/threonine-protein kinase 10 (Homo sapiens) (UniProt O94804). Description: Enzymatic radiometric [Km ATP] KinaseProfiler LeadHunter assay, kinase: LOK, catalogue number: 14-686KP The assay has been performed by Eurofins Discovery. Particulars: ATP concentration 120.0 uM, Test compound concentration 10.0 uM.
The target in experiment [3] is Calcium/calmodulin-dependent protein kinase type 1 (Homo sapiens) (UniProt Q14012). Description: Enzymatic radiometric [Km ATP] KinaseProfiler LeadHunter assay, kinase: CaMKI, catalogue number: 14-663KP The assay has been performed by Eurofins Discovery. The note with it: ATP concentration 200.0 uM, Test compound concentration 10.0 uM.
The target of experiment [4] is CDK6/cyclin D3 (Homo sapiens) (UniProt P30281+Q00534). Put plainly: Enzymatic radiometric [Km ATP] KinaseProfiler LeadHunter assay, kinase: CDK6/cyclinD3, catalogue number: 14-519KP The assay has been performed by Eurofins Discovery. The experiment is classed as protein-complex assay. The note with it: ATP concentration 200.0 uM, Test compound concentration 10.0 uM.

In experiment [5] the target is Tyrosine-protein kinase Lyn (Homo sapiens) (UniProt P07948). Description: Enzymatic radiometric [Km ATP] KinaseProfiler LeadHunter assay, kinase: Lyn, catalogue number: 14-510KP The assay has been performed by Eurofins Discovery. Particulars: ATP concentration 70.0 uM, Test compound concentration 10.0 uM.
Experiment [6] has as its target Protein kinase C alpha type (Homo sapiens) (UniProt P17252). Put plainly: Enzymatic radiometric [Km ATP] KinaseProfiler LeadHunter assay, kinase: PKC-alpha, catalogue number: 14-484KP The assay has been performed by Eurofins Discovery. Particulars: ATP concentration 45.0 uM, Test compound concentration 10.0 uM.

Tyrosine-protein kinase Lyn (Homo sapiens), sequence (P07948 2-512 limits assumed): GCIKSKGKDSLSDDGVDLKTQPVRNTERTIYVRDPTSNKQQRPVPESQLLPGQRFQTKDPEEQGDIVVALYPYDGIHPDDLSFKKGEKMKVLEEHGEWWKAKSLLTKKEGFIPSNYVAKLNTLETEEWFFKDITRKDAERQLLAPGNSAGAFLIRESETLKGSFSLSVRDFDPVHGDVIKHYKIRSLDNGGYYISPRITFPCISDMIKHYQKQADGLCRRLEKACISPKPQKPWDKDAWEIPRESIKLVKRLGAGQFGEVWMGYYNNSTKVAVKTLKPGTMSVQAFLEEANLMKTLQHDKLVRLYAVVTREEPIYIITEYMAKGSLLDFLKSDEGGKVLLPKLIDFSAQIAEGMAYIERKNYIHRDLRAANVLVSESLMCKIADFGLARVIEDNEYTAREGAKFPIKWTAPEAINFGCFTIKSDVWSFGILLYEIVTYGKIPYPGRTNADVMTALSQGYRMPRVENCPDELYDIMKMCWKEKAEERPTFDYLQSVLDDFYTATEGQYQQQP
Serine/threonine-protein kinase 10 (Homo sapiens), sequence (O94804 whole entry, looked up): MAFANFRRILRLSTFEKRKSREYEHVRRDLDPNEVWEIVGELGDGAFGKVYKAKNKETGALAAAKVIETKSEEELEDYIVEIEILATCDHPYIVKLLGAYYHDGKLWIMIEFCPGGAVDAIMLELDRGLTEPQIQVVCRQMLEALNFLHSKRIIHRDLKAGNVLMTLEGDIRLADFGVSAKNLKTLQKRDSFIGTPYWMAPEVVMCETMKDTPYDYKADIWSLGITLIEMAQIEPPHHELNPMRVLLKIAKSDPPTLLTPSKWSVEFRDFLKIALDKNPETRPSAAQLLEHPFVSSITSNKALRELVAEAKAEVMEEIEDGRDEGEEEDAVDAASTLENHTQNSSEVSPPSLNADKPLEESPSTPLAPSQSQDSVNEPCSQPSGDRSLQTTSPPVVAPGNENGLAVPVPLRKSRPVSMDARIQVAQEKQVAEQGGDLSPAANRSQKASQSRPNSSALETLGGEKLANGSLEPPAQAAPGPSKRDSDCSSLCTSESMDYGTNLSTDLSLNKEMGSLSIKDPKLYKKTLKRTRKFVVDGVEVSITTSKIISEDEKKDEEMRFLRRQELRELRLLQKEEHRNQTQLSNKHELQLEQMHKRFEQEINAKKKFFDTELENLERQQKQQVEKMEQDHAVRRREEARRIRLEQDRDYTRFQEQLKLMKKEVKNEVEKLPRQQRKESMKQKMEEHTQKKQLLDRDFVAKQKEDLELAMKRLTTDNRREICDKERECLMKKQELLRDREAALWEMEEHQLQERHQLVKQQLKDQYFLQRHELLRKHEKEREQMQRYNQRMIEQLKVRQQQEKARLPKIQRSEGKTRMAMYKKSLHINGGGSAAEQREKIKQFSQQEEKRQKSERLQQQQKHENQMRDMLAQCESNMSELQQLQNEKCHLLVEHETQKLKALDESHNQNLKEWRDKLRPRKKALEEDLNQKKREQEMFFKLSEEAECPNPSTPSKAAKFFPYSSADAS
Calcium/calmodulin-dependent protein kinase type 1 (Homo sapiens), sequence (Q14012 whole entry, looked up): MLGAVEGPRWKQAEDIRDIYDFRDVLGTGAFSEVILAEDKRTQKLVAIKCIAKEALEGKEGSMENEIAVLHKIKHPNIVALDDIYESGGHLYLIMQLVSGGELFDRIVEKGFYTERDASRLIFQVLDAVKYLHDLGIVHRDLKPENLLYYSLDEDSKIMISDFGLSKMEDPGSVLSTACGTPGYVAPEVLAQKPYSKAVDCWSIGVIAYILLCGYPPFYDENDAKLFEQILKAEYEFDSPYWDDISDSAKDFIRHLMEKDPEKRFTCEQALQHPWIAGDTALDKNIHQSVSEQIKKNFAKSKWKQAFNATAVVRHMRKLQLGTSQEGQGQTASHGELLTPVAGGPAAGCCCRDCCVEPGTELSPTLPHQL

For `CC(C)[C@H](Nc1ncnc2[nH]c(-c3cnn(C)c3C#N)cc12)c1ccc2c(n1)OCCO2`, the Activity was determined as 106% in experiment [1]; 45% in experiment [2]; 104% in experiment [3]; 102% in experiment [4]; 79% in experiment [5].
In the case of `CC(C)[C@H](Nc1ncnc2[nH]ccc12)c1ccc2c(c1)S(=O)(=O)CCC2`, the Activity in experiment [1] was found to be 105%; in experiment [2] it was 102%; in experiment [3], 92%; in experiment [4], 105%; in experiment [6] it was 98%; in experiment [5], 104%.
Take `COc1ccc([C@H](Cc2nnn[nH]2)NC(=O)c2ncnc3[nH]ccc23)cc1`: the Activity in experiment [1] was found to be 103%; in experiment [2], 102%; in experiment [4], 102%; in experiment [6] it was 93%; in experiment [5], 108%.
As to `Cn1ncc(-c2cc3c(N[C@@H](c4ccc5c(n4)OCCO5)C(C)(C)C)ncnc3[nH]2)c1C#N`, the Activity in experiment [1] stood at 108%; in experiment [2] it was 122%; in experiment [3], 87%; in experiment [6], 87%; in experiment [5], 101%.
As for `CC(C)[C@@H](Nc1ncnc2[nH]c(C(=O)N[C@@H]3CCN(C)C3)cc12)c1ccc2c(c1)S(=O)(=O)CCC2`, the Activity in experiment [1] is 105%; in experiment [2], 99%; in experiment [3] it was 100%; in experiment [4], 99%; in experiment [6], 101%; in experiment [5], 107%.
`CNC(=O)Cn1cc(-c2cc3c(N[C@@H](c4ccc5c(c4)S(=O)(=O)CCC5)C(C)C)ncnc3[nH]2)cn1`: the Activity in experiment [1] worked out at 103%; in experiment [2], 83%; in experiment [3], 101%; in experiment [4] it was 107%; in experiment [6] it was 95%; in experiment [5], 75%.
In the case of `Cc1nn(C)cc1-c1cc2c(N[C@H](c3ccc4c(c3)S(=O)(=O)CCC4)C(C)C)ncnc2[nH]1`, the Activity is 103% in experiment [1]; 93% in experiment [2]; 101% in experiment [3]; 106% in experiment [4]; 93% in experiment [6]; 48% in experiment [5].
Turning to `COc1ccc([C@@H](Cc2nnn[nH]2)NC(=O)c2ncnc3[nH]ccc23)cc1`, the Activity was 101% in experiment [1]; 96% in experiment [2]; 100% in experiment [3]; 100% in experiment [4]; 95% in experiment [6]; 111% in experiment [5].
In the case of `CNCc1cc(-c2cc3c(N[C@@H](c4ccc5c(c4)S(=O)(=O)CCC5)C(C)C)ncnc3[nH]2)co1`, the Activity in experiment [2] was determined as 92%; in experiment [3], 87%; in experiment [4], 92%; in experiment [6], 99%; in experiment [5], 47%.
For the molecule `CC(C)[C@@H](Nc1ncnc2[nH]ccc12)c1ccc2c(c1)S(=O)(=O)CCC2`, the Activity in experiment [1] was found to be 108%; in experiment [2], 104%; in experiment [3] it was 94%; in experiment [4], 99%; in experiment [6], 104%; in experiment [5], 112%.
Regarding `C[C@H](C(=O)O)[C@@H](NC(=O)c1ncnc2[nH]ccc12)c1ccc(Br)cc1`, the Activity in experiment [1] was 102%; in experiment [2], 97%; in experiment [3], 101%; in experiment [4], 97%; in experiment [6] it was 108%; in experiment [5], 94%.
For the molecule `CC(C)[C@@H](Nc1ncnc2[nH]c(-c3cnn(C)c3C#N)cc12)c1ccc2c(n1)OCCO2`, the Activity in experiment [3] is 104% and 95%; in experiment [6], 90% and 99%.
